From patent US6461997B1, “Triazole sulfones having herbicidal activity” (Monsanto Technology LLC, priority 1999, dated 2002)

How the values were obtained:
AVEFA (wild oat) = assay: Pre-plant incorporated (PPI) herbicidal activity, cool season; format: in vivo, Avena fatua; conditions: weed, PPI application
Description: (§1) In another set of tests, the pre-plant incorporated (PPI) activity of compounds of this invention was evaluated on the same species as for the pre-emergence tests described above. In the PPI tests the following procedure, designed to simulate PPI application, was used.
(§2) A pre-prepared topsoil mixture (described above) was placed in a pot and compacted to a depth of 1.0 to 1.25 cm from the top of the pot. Seeds of each of several monocotyledonous and dicotyledonous annual plant species were placed on top of the soil. A sufficient quantity of soil to cover the seeds and level fill the pot was weighed into an open container. A known amount of the test compound was dissolved or suspended in an organic solvent and applied by spraying to this cover soil. The cover soil was thoroughly mixed to distribute the test compound throughout the cover soil, and was then applied as a cover layer over the seeds. Untreated soil was used as a cover layer for control pots. After treatment the plants were placed in a greenhouse where they received 0.64 cm of overhead irrigation. All subsequent watering consisted of a light overhead mist and/or subirrigation as needed for germination and growth. Tables 9 and 10 below relate to warm season plant species which were placed after pre-emergence treatment in a greenhouse with a 30/21° C. day/night temperature regime. Tables 11 and 12 below relates to cool season plant species placed after pre-emergence treatment in a greenhouse or growth chamber with an 18/13° C. day/night temperature regime. Only the compounds of Examples 1, 6, 8, 11, 13 and 15-20 were included in PPI tests.
(§3) Approximately 14 days after planting and treating, the plants were observed and herbicidal efficacy recorded as percent inhibition by comparison with untreated plants.

oilseed rape (BRSNS) = assay: Selectivity test, PPI, cool season crop; format: in vivo, Brassica napus; conditions: PPI application
Description: as §2, §3
Additional pre-emergence and PPI tests were conducted by the procedures described above, on warm and cool season weed species in the presence of crop species, to assess herbicidal selectivity. Crop species included in warm season tests were corn (Zea mays, ZEAMX), rice (Oryza sativa, ORYSA) and soybean (Glycine max, GLYMX). Crop species included in cool season tests were wheat (Triticum aestivum, TRZAW), barley (Hordeunm vulgare, HORVX) and oilseed rape (Brassica napus, BRSNS).
Tables 15 and 16 relate to pre-emergence and PPI tests respectively on warm season species. Table 17 relates to pre-emergence tests on cool season species.

LOLMG (annual ryegrass) = assay: Pre-plant incorporated (PPI) herbicidal activity, cool season; format: in vivo, Lolium multiflorum; conditions: weed, PPI application
Description: as §1, §2, §3

[1] = test system: BRAPP (broadleaf signalgrass); assay: Pre-emergence herbicidal activity, warm season; format: in vivo, Brachiaria platyphylla; conditions: GR80 = lowest tested rate (300, 100, 30, 10 g/ha) with 80% or greater inhibition; approx. 14 days after treating; 30/21° C.
In short: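 Activity is expressed as the rate giving 80% inhibition, with 300, 100, 30 and 10 g/ha typically tested. An asterisk marks activity short of 80% at the top rate. Warm-season grasses were held at 30/21 °C; cool-season blackgrass and wild buckwheat at 18/13 °C; scoring at about 14 days.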

BROTE (downy brome) = assay: Pre-plant incorporated (PPI) herbicidal activity, cool season; format: in vivo, Bromus tectorum; conditions: weed, PPI application
Description: as §1, §2, §3

For `CCN(CC)C(=O)n1cnc(S(=O)(=O)C(F)(F)C(F)(F)Br)n1` [Example 4], the “Percent inhibition AVEFA” value (AVEFA (wild oat); 30 g/ha) was 10%, the “Percent inhibition AVEFA” value (AVEFA (wild oat); 100 g/ha) was 10% and the “Percent inhibition AVEFA” value (AVEFA (wild oat); 300 g/ha) was 50%. The “Percent inhibition AVEFA” value (AVEFA (wild oat); 900 g/ha) was 100%, the “Percent inhibition BRSNS” value (oilseed rape (BRSNS); 30 g/ha) was 80% and the “Percent inhibition BRSNS” value (oilseed rape (BRSNS); 100 g/ha) was 100%. The “Percent inhibition BRSNS” value (oilseed rape (BRSNS); 300 g/ha) was 100%, the “Percent inhibition BRSNS” value (oilseed rape (BRSNS); 900 g/ha) was 100% and the “Percent inhibition LOLMG” value (LOLMG (annual ryegrass); 30 g/ha) was 80%. For the same compound, the “Percent inhibition LOLMG” value (LOLMG (annual ryegrass); 100 g/ha) was 100%, the “Percent inhibition LOLMG” value (LOLMG (annual ryegrass); 300 g/ha) was 100% and the “Percent inhibition LOLMG” value (LOLMG (annual ryegrass); 900 g/ha) was 100%. The “Pre-emergence activity (GR80) BRAPP” value [1] was 300 g/ha, the “Percent inhibition BROTE” value (BROTE (downy brome); 30 g/ha) was 0% and the “Percent inhibition BROTE” value (BROTE (downy brome); 100 g/ha) was 50%. For the same compound, the “Percent inhibition BROTE” value (BROTE (downy brome); 300 g/ha) was 85% and the “Percent inhibition BROTE” value (BROTE (downy brome); 900 g/ha) was 90%.

`CCN(CC)C(=O)n1cnc(S(=O)(=O)C(F)(F)SCc2ccccc2)n1` [Example 10] was tested, and the “Percent inhibition AVEFA” value (AVEFA (wild oat); 10 g/ha) was 0%, the “Percent inhibition AVEFA” value (AVEFA (wild oat); 30 g/ha) was 0% and the “Percent inhibition AVEFA” value (AVEFA (wild oat); 100 g/ha) was 20%. For the same compound, the “Percent inhibition AVEFA” value (AVEFA (wild oat); 300 g/ha) was 40%, the “Percent inhibition AVEFA” value (AVEFA (wild oat); 900 g/ha) was 95% and the “Percent inhibition BRSNS” value (oilseed rape (BRSNS); 10 g/ha) was 0%. For the same compound, the “Percent inhibition BRSNS” value (oilseed rape (BRSNS); 30 g/ha) was 0%, the “Percent inhibition BRSNS” value (oilseed rape (BRSNS); 100 g/ha) was 0% and the “Percent inhibition BRSNS” value (oilseed rape (BRSNS); 300 g/ha) was 50%. For the same compound, the “Percent inhibition BRSNS” value (oilseed rape (BRSNS); 900 g/ha) was 95%, the “Percent inhibition LOLMG” value (LOLMG (annual ryegrass); 10 g/ha) was 0% and the “Percent inhibition LOLMG” value (LOLMG (annual ryegrass); 30 g/ha) was 0%. The “Percent inhibition LOLMG” value (LOLMG (annual ryegrass); 100 g/ha) was 65%, the “Percent inhibition LOLMG” value (LOLMG (annual ryegrass); 300 g/ha) was 100% and the “Percent inhibition LOLMG” value (LOLMG (annual ryegrass); 900 g/ha) was 99%. For the same compound, the “Pre-emergence activity (GR80) BRAPP” value [1] was 300 g/ha, the “Percent inhibition BROTE” value (BROTE (downy brome); 10 g/ha) was 0% and the “Percent inhibition BROTE” value (BROTE (downy brome); 30 g/ha) was 0%. The “Percent inhibition BROTE” value (BROTE (downy brome); 100 g/ha) was 10%, the “Percent inhibition BROTE” value (BROTE (downy brome); 300 g/ha) was 35% and the “Percent inhibition BROTE” value (BROTE (downy brome); 900 g/ha) was 60%.

In the case of `CCN(CC)C(=O)n1cnc(S(=O)(=O)C(F)(F)Cl)n1` [Example 3], the “Percent inhibition AVEFA” value (AVEFA (wild oat); 30 g/ha) is reported as 20%, the “Percent inhibition AVEFA” value (AVEFA (wild oat); 100 g/ha) is reported as 40% and the “Percent inhibition AVEFA” value (AVEFA (wild oat); 300 g/ha) is reported as 100%. The “Percent inhibition AVEFA” value (AVEFA (wild oat); 900 g/ha) was 80%, the “Percent inhibition BRSNS” value (oilseed rape (BRSNS); 30 g/ha) was 100% and the “Percent inhibition BRSNS” value (oilseed rape (BRSNS); 100 g/ha) was 100%. For the same compound, the “Percent inhibition BRSNS” value (oilseed rape (BRSNS); 300 g/ha) was 100%, the “Percent inhibition BRSNS” value (oilseed rape (BRSNS); 900 g/ha) was 100% and the “Percent inhibition LOLMG” value (LOLMG (annual ryegrass); 30 g/ha) was 40%. The “Percent inhibition LOLMG” value (LOLMG (annual ryegrass); 100 g/ha) was 100%, the “Percent inhibition LOLMG” value (LOLMG (annual ryegrass); 300 g/ha) was 100% and the “Percent inhibition LOLMG” value (LOLMG (annual ryegrass); 900 g/ha) was 100%. The “Pre-emergence activity (GR80) BRAPP” value [1] was 100 g/ha, the “Percent inhibition BROTE” value (BROTE (downy brome); 30 g/ha) was 0% and the “Percent inhibition BROTE” value (BROTE (downy brome); 100 g/ha) was 30%. For the same compound, the “Percent inhibition BROTE” value (BROTE (downy brome); 300 g/ha) was 90% and the “Percent inhibition BROTE” value (BROTE (downy brome); 900 g/ha) was 95%.

For `CCN(CC)C(=O)n1cnc(S(=O)(=O)C(F)(F)SC)n1` [Example 9], the “Percent inhibition AVEFA” value (AVEFA (wild oat); 30 g/ha) was 0%, the “Percent inhibition AVEFA” value (AVEFA (wild oat); 100 g/ha) was 20% and the “Percent inhibition AVEFA” value (AVEFA (wild oat); 300 g/ha) was 100%. The “Percent inhibition AVEFA” value (AVEFA (wild oat); 900 g/ha) was 100%, the “Percent inhibition BRSNS” value (oilseed rape (BRSNS); 30 g/ha) was 50% and the “Percent inhibition BRSNS” value (oilseed rape (BRSNS); 100 g/ha) was 95%. For the same compound, the “Percent inhibition BRSNS” value (oilseed rape (BRSNS); 300 g/ha) was 100%, the “Percent inhibition BRSNS” value (oilseed rape (BRSNS); 900 g/ha) was 100% and the “Percent inhibition LOLMG” value (LOLMG (annual ryegrass); 30 g/ha) was 60%. For the same compound, the “Percent inhibition LOLMG” value (LOLMG (annual ryegrass); 100 g/ha) was 100%, the “Percent inhibition LOLMG” value (LOLMG (annual ryegrass); 300 g/ha) was 100% and the “Percent inhibition LOLMG” value (LOLMG (annual ryegrass); 900 g/ha) was 100%. For the same compound, the “Pre-emergence activity (GR80) BRAPP” value [1] was 300 g/ha, the “Percent inhibition BROTE” value (BROTE (downy brome); 30 g/ha) was 0% and the “Percent inhibition BROTE” value (BROTE (downy brome); 100 g/ha) was 0%. The “Percent inhibition BROTE” value (BROTE (downy brome); 300 g/ha) was 20% and the “Percent inhibition BROTE” value (BROTE (downy brome); 900 g/ha) was 95%.
